Measured values reported in US4026888A, “Certain derivatives of particular 3-thiolated cephalosporins” (priority 1976, dated 1977).
Read-outs that look alike come from different tables or passages of the source.

Experiments:
P. mirabilis A9900 = assay: Oral PD50 in mice; assay type: in vivo; conditions: mice treated at 1 and 3.5 hours post-challenge; for ED50: Proteus mirabilis, A9900, po, 3.5 h
[1] = Mouse blood levels after oral administration; assay type: in vivo; conditions: for concentration at 0.5 h / concentration at 2 h / concentration at 3.5 h / concentration at 1 h: mouse, blood, po
Description: Mouse Blood Levels After Oral
Administration Of 100 mg./kg. Body Weight
The compounds were prepared in
Tween - carboxymethylcellulose
and 8 mice were used for each
Mouse Blood Levels After PO
Administration of 100 mg./kg. Body Weight
The compounds were prepared in Tween-CMC. BL-S640
The compounds were prepared in Tween-CMC. Values are the average of two

[2] = Urinary recovery after IM administration to rats; assay type: in vivo; conditions: rat, urine, read-out: Urinary Recovery, Percentage of Administered Dose Recovered; for dose excreted at 6 h: 0-6 hr
Description: Urinary Recovery After IM
Administration of 50 and 10 mg./kg. to Rats
The compounds were prepared in 0.01% phosphate buffer. BL-S640 was used as
Urinary Recovery after IM
Administration of 50 mg./kg. to Rats
The compounds were prepared in 0.01% phosphate buffer.

Stability of solids = assay type: physicochemical; conditions: solid; 1 month at 56° C.; read-out: Stability of Solids (loss)
[3] = for Form in solution by paper strip and liquid chromatography: 0.2 and 1.0 mg./ml. in water
Description: (§1) Paper strip bioautographs were run in the following manner. Samples were dissolved at a concentration of 500 γ/ml. in 0.1M pH 7 phosphate buffer and pH 7 pooled human serum at 500 γ/ml. A 10 μl sample of BL-S640 and the above product were spotted on a 1/2 inch strip of What. No. 1 paper and developed at 27° for 16 hours in a butyl acetate 80, n-butanol 15, acetic acid 40, and water 24 system. The strips were air-dried, and placed on an agar plate seeded with B. subtilis A.T.C.C.
(§2) Samples were chromatographed on a μ Bondapak C18 (Waters Associates) column using a 0.01M sodium acetate pH 4/-methanol 8/2 mobile phase at a flow rate of 0.52 ml./min. Detection was by UV at 354 μm. Samples were dissolved at a concentration of 1 mg./ml. in the mobile phase, 2 μ were injected and BL-S640 was eluted at 18 min. and the aldehyde at 6 min. The quantitation of BL-S640 and 5-formylfuransulfonic acid were made using p-toluene-sulfonic acid as an internal standard.

[4] = Stability of aqueous solutions; assay type: physicochemical
[5] = Detection in urine (with mouse blood levels); assay type: in vivo; conditions: no evidence of the derivative
Rat blood levels = assay type: in vivo; conditions: in words
Water solubility = assay type: physicochemical; conditions: for solubility: read-out: Solubility in water
bacterial spectrum = assay: Antibacterial activity / MIC bacterial spectrum compared with parent; assay type: cell-based; conditions: in words
Description: |Antibiotic Activity In Nutrient Broth

[6] = IR-NMR: cyclic / non cyclic derivative in solution; assay type: physicochemical; conditions: 70 mg/ml
[7] = 100 mg/kg, Example 3, PO 100 mg./kg., 0.5 hr, Tween-CMC, average of two experiments, read-out: Blood Levels
[8] = 100 mg/kg, Example 3, PO 100 mg./kg., 2 hr, Tween-CMC, average of two experiments, read-out: Blood Levels
[9] = 100 mg/kg, Example 3, PO 100 mg./kg., 3.5 hr, Tween-CMC, average of two experiments, read-out: Blood Levels
[10] = 100 mg/kg, Table II, oral 100 mg./kg., 0.5 hr, Tween-carboxymethylcellulose, 8 mice, read-out: Blood Level
[11] = 100 mg/kg, Table II, oral 100 mg./kg., 1 hr, Tween-carboxymethylcellulose, 8 mice, read-out: Blood Level
[12] = 100 mg/kg, Table II, oral 100 mg./kg., 2 hr, Tween-carboxymethylcellulose, 8 mice, read-out: Blood Level
[13] = 100 mg/kg, Table II, oral 100 mg./kg., 3.5 hr, Tween-carboxymethylcellulose, 8 mice, read-out: Blood Level
[14] = 50 mg/kg, IM 50 mg./kg., 0-24 hr
[15] = 50 mg/kg, IM 50 mg./kg., 6-24 hr
[16] = 100 mg/kg, Example 2, PO 100 mg./kg., 0.5 hr, Tween-CMC, 16 or 32 mice, read-out: Blood Levels
[17] = 100 mg/kg, Example 2, PO 100 mg./kg., 1 hr, Tween-CMC, 16 or 32 mice, read-out: Blood Levels
[18] = 100 mg/kg, Example 2, PO 100 mg./kg., 2 hr, Tween-CMC, 16 or 32 mice, read-out: Blood Levels
[19] = 100 mg/kg, Example 2, PO 100 mg./kg., 3.5 hr, Tween-CMC, 16 or 32 mice, read-out: Blood Levels
[20] = 10 mg/kg, IM 10 mg./kg., 0-24 hr
[21] = 10 mg/kg, IM 10 mg./kg., 6-24 hr

Description for physchem: as §1, §2

In the case of `N[C@@H](C(=O)N[C@@H]1C(=O)N2C(C(=O)O)=C(CSc3cnn[nH]3)CS[C@H]12)c1ccc(O)cc1` [BL-S640, 7-[D-α-amino-α-(p-hydroxyphenyl)acetamido]-3-(1,2,3-triazol-5-ylthiomethyl)-3-cephem-4-carboxylic acid, reference compound], the ED50 (P. mirabilis A9900; oral, read-out: PD50) is reported as 7.2 mg/kg, the PD50 (P. mirabilis A9900; oral) is reported as 9.6 mg./kg./treatment and the “Blood Levels” value ([1]; Example 3, PO 100 mg./kg., 1 hr, Tween-CMC, average of two experiments) is reported as 42400 ng/mL. For the same molecule, the “Blood Level” value ([1]; Table II, oral 100 mg./kg., 0.5 hr, Tween-carboxymethylcellulose, 8 mice, 100 mg/kg, 30 min) was 57400 ng/mL, the “Blood Level” value ([1]; Table II, oral 100 mg./kg., 1 hr, Tween-carboxymethylcellulose, 8 mice, 100 mg/kg, 60 min) was 47000 ng/mL and the “Blood Level” value ([1]; Table II, oral 100 mg./kg., 2 hr, Tween-carboxymethylcellulose, 8 mice, 100 mg/kg, 120 min) was 29500 ng/mL. For the same molecule, the “Blood Level” value ([1]; Table II, oral 100 mg./kg., 3.5 hr, Tween-carboxymethylcellulose, 8 mice, 100 mg/kg, 210 min) was 10900 ng/mL, the concentration at 0.5 h [1, 7] was 48700 ng/mL and the concentration at 2 h [1, 8] was 24000 ng/mL. It also gave a concentration at 3.5 h [1, 9] of 10100 ng/mL, a concentration at 0.5 h [1, 10] of 50500 ng/mL and a concentration at 1 h [1, 11] of 39000 ng/mL. The concentration at 2 h [1, 12] was 24500 ng/mL, the concentration at 3.5 h [1, 13] was 9600 ng/mL and the dose excreted at 6 h ([2]; 50 mg/kg, IM 50 mg./kg.) was 44.2%. For the same molecule, the dose excreted at 24 h [2, 14] was 47.5% and the dose excreted at 24 h [2, 15] was 3.3%.

With `O=C(O)C1=C(CSc2cnn[nH]2)CS[C@@H]2[C@H](N3C(=O)[C@@H](c4ccc(O)cc4)NC3c3ccc(S(=O)(=O)O)o3)C(=O)N12` (stereo partly shown) [BL-S1027] the ED50 (P. mirabilis A9900; oral, read-out: PD50) was 6.3 mg/kg, the degraded (Stability of solids) was less than 10% and the “free BL-S640 by liquid chromatography” value ([3]; 1 mg./ml. in pH 7 phosphate buffer, 0 time) was 85%. The “Form in solution by paper strip and liquid chromatography” value [3] was “exists as free BL-S640”, the “Blood Level” value ([1]; Table II, oral 100 mg./kg., 0.5 hr, Tween-carboxymethylcellulose, 8 mice, listed as Compound of Ex. 1, 100 mg/kg, 30 min) was 54600 ng/mL and the “Blood Level” value ([1]; Table II, oral 100 mg./kg., 1 hr, Tween-carboxymethylcellulose, 8 mice, listed as Compound of Ex. 1, 100 mg/kg, 60 min) was 53500 ng/mL. The “Blood Level” value ([1]; Table II, oral 100 mg./kg., 2 hr, Tween-carboxymethylcellulose, 8 mice, listed as Compound of Ex. 1, 100 mg/kg, 120 min) was 27600 ng/mL, the “Blood Level” value ([1]; Table II, oral 100 mg./kg., 3.5 hr, Tween-carboxymethylcellulose, 8 mice, listed as Compound of Ex. 1, 100 mg/kg, 210 min) was 8200 ng/mL and the concentration at 0.5 h [1, 16] was 49800 ng/mL. For the same molecule, the concentration at 1 h [1, 17] was 45100 ng/mL, the concentration at 2 h [1, 18] was 24000 ng/mL and the concentration at 3.5 h [1, 19] was 9300 ng/mL. It also gave a concentration at 0.5 h [1, 10] of 45000 ng/mL, a concentration at 1 h [1, 11] of 36600 ng/mL and a concentration at 2 h [1, 12] of 20400 ng/mL. The concentration at 3.5 h [1, 13] was 10400 ng/mL, the “Mouse blood levels, oral, compared with BL-S640 propylene glycol adduct” value ([1]; oral, in words) was “approximately equal” and the “Storage of aqueous solutions, loss in activity” value ([4]; 250, 25 and 10 mg. BL-S640 activity/ml., 4° C. or room temperature, at least 24 hours) was “no significant loss in activity”. The “Stability of solution in water: stable (retained full bioactivity)” value ([4]; 25,000 mcg./ml., 6° C. (refrigerator)) was 14 days, the “Stability of solution in water” value ([4]; 25,000 mcg./ml., room temperature, for at least three days) was “stable (retained full bioactivity) for at least three days” and the degraded at 24 h ([4]; water, 250, 25 and 10 mg./ml. of BL-S640 activity, at least 24 hours at room temperature, read-out: Stability of solutions (loss)) was less than 10%. The “Form appearing in urine” value [5] was “BL-S640 appeared in urine with no evidence”, the “Intramuscular rat blood levels compared with BL-S640” value (Rat blood levels; intramuscular) was “equal to that of BL-S640” and the “Oral rat blood levels compared with BL-S640” value (Rat blood levels; oral) was “equal to that of BL-S640”. For the same molecule, the Solubility in water (Water solubility) was greater than 400 mg/mL, the solubility (Water solubility) was greater than 500 mg/mL and the “MIC bacterial spectrum / activity compared with parent” value (bacterial spectrum) was “equal to that of BL-S640”. For the same molecule, the “non cyclic derivative in solution” value [6] was 20%, the dose excreted at 6 h ([2]; 10 mg/kg, IM 10 mg./kg.) was 30.1% and the dose excreted at 24 h [2, 20] was 31.8%. For the same molecule, the dose excreted at 24 h [2, 21] was 1.7%, the dose excreted at 6 h ([2]; 50 mg/kg, IM 50 mg./kg.) was 39.6% and the dose excreted at 24 h [2, 14] was 42.2%. For the same molecule, the dose excreted at 24 h [2, 15] was 2.6%.

For `O=C(O)COc1ccccc1C1N[C@H](c2ccc(O)cc2)C(=O)N1[C@@H]1C(=O)N2C(C(=O)O)=C(CSc3cnn[nH]3)CS[C@H]12` (stereo partly shown) [BL-S1048], the ED50 (P. mirabilis A9900; read-out: PD50, oral) was 4.7 mg/kg, the PD50 (P. mirabilis A9900; oral) was 3.6 mg./kg./treatment and the “Form in solution by paper strip and liquid chromatography” value [3] was “BL-S640 completely free of the aldehyde”. For the same molecule, the concentration at 0.5 h [1, 16] was 46500 ng/mL, the concentration at 1 h [1, 17] was 44600 ng/mL and the concentration at 2 h [1, 18] was 28100 ng/mL. The concentration at 3.5 h [1, 19] was 12800 ng/mL, the dose excreted at 6 h ([2]; 10 mg/kg, IM 10 mg./kg.) was 21.7% and the dose excreted at 24 h [2, 20] was 23.7%. It also gave a dose excreted at 24 h [2, 21] of 2%, a dose excreted at 6 h ([2]; 50 mg/kg, IM 50 mg./kg.) of 32.3% and a dose excreted at 24 h [2, 14] of 34.7%. It also gave a dose excreted at 24 h [2, 15] of 2.4%.

Work on `O=C(O)C1=C(CSc2cnn[nH]2)CS[C@@H]2[C@H](N3C(=O)[C@@H](c4ccc(O)cc4)NC3c3ccccc3S(=O)(=O)O)C(=O)N12` (stereo partly shown) [BL-S1055] yielded an ED50 (P. mirabilis A9900; oral, read-out: PD50) of 8.2 mg/kg, a degraded at 1 h (physchem) of 70.5% and a degraded at 2 h (physchem) of 88%. The “% Free BL-S640 by liquid chromatography” value ([3]; 0 min) was 64.0%, the concentration at 0.5 h [1, 7] was 38200 ng/mL and the concentration at 1 h ([1]; 100 mg/kg, Example 3, PO 100 mg./kg., 1 hr, Tween-CMC, average of two experiments, read-out: Blood Levels) was 35700 ng/mL. For the same molecule, the concentration at 2 h [1, 8] was 22000 ng/mL, the concentration at 3.5 h [1, 9] was 11300 ng/mL and the solubility (Water solubility) was greater than 400 mg/mL. The dose excreted at 6 h ([2]; 50 mg/kg, IM 50 mg./kg.) was 36.6%, the dose excreted at 24 h [2, 14] was 39% and the dose excreted at 24 h [2, 15] was 2.4%.
